Measured values from patent US6974820B2, “Methods for treating urinary incontinence and other disorders using trospium” (Bridge Pharma, Inc., priority 2002, dated 2005).
Read-outs that look alike come from different tables or passages of the source.

How the values were obtained:
[1] = test system: QTc interval of the ECG; assay: Cardiac side effects: QTc interval of the ECG in anesthetized guinea pigs; conditions: for Prolongation of the QTc interval of the ECG (in words): intravenous infusion; for ΔQTc (%): intravenous infusion over 30 min
[2] = molecular target: T1, CYP 2D6 (Homo sapiens, UniProt P10635)
T1 sequence (P10635 whole entry): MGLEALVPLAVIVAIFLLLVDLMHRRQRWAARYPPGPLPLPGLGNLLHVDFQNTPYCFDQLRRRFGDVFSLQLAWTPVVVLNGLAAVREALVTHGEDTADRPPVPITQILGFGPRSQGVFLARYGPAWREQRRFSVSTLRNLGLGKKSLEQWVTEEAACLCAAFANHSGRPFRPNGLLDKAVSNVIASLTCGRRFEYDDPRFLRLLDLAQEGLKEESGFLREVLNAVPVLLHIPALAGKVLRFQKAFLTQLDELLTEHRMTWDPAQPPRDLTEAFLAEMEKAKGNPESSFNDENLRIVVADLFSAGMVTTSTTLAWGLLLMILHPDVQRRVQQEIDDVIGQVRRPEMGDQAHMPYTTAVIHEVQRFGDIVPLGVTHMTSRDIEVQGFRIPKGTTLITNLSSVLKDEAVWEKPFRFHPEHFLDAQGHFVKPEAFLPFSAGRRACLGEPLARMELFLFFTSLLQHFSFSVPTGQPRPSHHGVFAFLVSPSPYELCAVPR

[3] = molecular target: T2, human recombinant muscarinic receptor M-1 (Homo sapiens, UniProt P11229); assay: biochemical; format: binding
T2 construct: expressed in transfected cells; host or cells: SF9 insect cells (membranes)
T2 sequence (P11229 1-460): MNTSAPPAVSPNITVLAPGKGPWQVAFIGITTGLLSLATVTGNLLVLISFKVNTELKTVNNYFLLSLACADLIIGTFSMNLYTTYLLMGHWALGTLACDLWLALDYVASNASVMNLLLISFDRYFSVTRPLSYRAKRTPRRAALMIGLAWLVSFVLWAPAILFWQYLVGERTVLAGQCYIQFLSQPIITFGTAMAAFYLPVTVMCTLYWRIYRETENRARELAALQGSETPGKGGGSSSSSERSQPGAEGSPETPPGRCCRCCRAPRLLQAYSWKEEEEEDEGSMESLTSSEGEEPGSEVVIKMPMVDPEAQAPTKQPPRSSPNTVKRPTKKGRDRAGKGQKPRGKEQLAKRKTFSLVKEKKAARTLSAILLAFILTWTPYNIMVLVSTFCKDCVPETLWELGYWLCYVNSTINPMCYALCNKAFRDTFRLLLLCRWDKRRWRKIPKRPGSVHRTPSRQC

[4] = molecular target: T3, human recombinant muscarinic receptor M-4 (Homo sapiens, UniProt P08173); format: binding
T3 construct: expressed in transfected cells; host or cells: SF9 insect cells (membranes)
T3 sequence (P08173 1-479): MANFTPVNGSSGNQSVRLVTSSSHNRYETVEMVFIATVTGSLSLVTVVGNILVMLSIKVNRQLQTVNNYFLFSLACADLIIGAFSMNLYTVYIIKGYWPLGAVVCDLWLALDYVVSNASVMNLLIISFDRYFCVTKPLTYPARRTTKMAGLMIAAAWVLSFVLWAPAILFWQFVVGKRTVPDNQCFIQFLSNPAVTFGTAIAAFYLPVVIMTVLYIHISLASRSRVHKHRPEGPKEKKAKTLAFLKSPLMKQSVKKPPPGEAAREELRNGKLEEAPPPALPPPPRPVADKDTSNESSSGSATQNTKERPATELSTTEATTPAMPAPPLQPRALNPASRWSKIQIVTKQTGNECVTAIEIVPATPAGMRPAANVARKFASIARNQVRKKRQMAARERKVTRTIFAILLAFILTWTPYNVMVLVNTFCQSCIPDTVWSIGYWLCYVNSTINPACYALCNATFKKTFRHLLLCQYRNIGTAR

[5] = molecular target: T1, CYP 2D6; assay: biochemical
[6] = molecular target: T4, human recombinant muscarinic receptor M-3 (Homo sapiens, UniProt P20309); assay: biochemical; format: binding
T4 construct: expressed in transfected cells; host or cells: SF9 insect cells (membranes)
T4 sequence (P20309 whole entry): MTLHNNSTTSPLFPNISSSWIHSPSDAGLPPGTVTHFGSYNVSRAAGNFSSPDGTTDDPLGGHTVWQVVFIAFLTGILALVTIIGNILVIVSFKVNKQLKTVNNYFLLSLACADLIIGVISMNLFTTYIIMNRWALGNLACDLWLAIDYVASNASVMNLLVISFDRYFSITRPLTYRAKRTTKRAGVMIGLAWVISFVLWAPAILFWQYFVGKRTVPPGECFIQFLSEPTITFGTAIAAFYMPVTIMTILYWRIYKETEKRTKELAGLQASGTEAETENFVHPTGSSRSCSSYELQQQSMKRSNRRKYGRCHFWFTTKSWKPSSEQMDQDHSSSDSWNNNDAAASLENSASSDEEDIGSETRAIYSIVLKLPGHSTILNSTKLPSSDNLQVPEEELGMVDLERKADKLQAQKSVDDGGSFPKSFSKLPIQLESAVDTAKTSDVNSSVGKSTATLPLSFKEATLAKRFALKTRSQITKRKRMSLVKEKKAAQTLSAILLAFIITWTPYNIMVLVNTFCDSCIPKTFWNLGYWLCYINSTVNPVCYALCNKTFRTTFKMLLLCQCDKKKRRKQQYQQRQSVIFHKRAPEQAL

Compound | Prolongation of the QTc interval of the ECG (in words) [1] | ΔQTc (%) [1] | Inhibition of CYP 2D6 isoenzyme metabolism (in words) [2] | Ki [3] | Ki ([4]; membranes of SF9 cells expressing human recombinant receptor, read-out: Affinity (negative logarithm of the dissociation constant Ki) M-4 (converted)) | IC50 [5] | Ki [6] | Ki [4]
CCN(CC)CC#CCOC(=O)C(O)(c1ccccc1)C1CCCCC1 (stereo not shown) [Oxybutynin] | statistically significant prolongation | +12 ± 2% | potently inhibit |  |  |  |  | 
CC(CC(c1ccccc1)c1ccccc1)NC(C)(C)C (stereo not shown) [Terodiline] | statistically significant prolongation | +11 ± 1% |  |  |  |  |  | 
Cc1ccc(O)c([C@H](CCN(C(C)C)C(C)C)c2ccccc2)c1 [Tolterodine] | statistically significant prolongation | +16 ± 1% |  | 1.58 nM | 20 nM |  |  | 
O=C(O[C@H]1C[C@H]2CC[C@@H](C1)[N+]21CCCC1)C(O)(c1ccccc1)c1ccccc1 [Trospium, 3α-hydroxy-spiro[1αH,5αH-nortropane-8,1′-pyrrolidinium] chloride benzilate] | no effects | −2 ± 1% |  | 0.794 nM |  | ~20000 nM | 0.501 nM | 1 nM
CC(C)(C)c1ccc(C(O)CCCN2CCC(C(O)(c3ccccc3)c3ccccc3)CC2)cc1 (stereo not shown) [terfenadine] | caused QT-prolongation |  |  |  |  |  |  | 
